Results published in US6800618B2, “Chemosensitizing agents against chloroquine resistant plasmodium falciparum and methods of making and using thereof” (The United States of America as represented by the …, priority 2001, dated 2004).

Experiments:
[1] = tested on: Plasmodium falciparum W2 clone; assay: FIC index with chloroquine (isobologram analysis) in W2 clone; format: cell-based; design: key: 1.0 = additive; <1.0 = synergy; >1.0 = antagonism; conditions: 1:1 combination of drug and chloroquine; chloroquine-resistant W2 clone
Procedure: In brief, the assay is based on the incorporation of radiolabeled hypoxanthine by the parasites and inhibition of isotope incorporation is attributed to activity of known or candidate antimalarial drugs. For each assay, proven antimalarials, such as chloroquine, mefloquine, quinine, artemisinin, pyrimethamine and sulfadoxine, were used as controls. The incubation period was 66 hours and the starting parasitemia was 0.2% with a 1% hematocrit. […] Albumax may be used instead of 10% normal heat inactivated human plasma.
(§1) 25 μl of each diluted candidate compound was then transferred to test plates, 200 μl of parasitized erythrocytes (0.2% parasitemia and 1% hematocrit) were added, and incubated at 37° C. in a controlled environment of 5% CO2, 5% O2 and 90% N2. After 42 hours, 25 μl of ^3H-hypoxanthine was added and the plates were incubated for an additional 24 hours. At the end of the 66 hour incubation period, the plates were frozen at −70° C. to lyse the red cells and later thawed and harvested onto glass fiber filter mats by using a 96-well cell harvester. The filter mats were then counted in a scintillation counter and the data was analyzed.
(§2) The FIC is the actual IC50 of one compound in the presence of a second compound but is expressed as a fraction of its IC50 when used alone. This index is a mathematical representation of the isobologram such that an FIC index of 1.0 represents the line of additive on the isobologram. An FIC index of less than 1.0 represents synergy or potentiation and an FIC index of greater than 1.0 represents antagonism.
In the isobologram graphs as shown in FIGS. 1-3, the x-axis is fractional inhibitory concentration (FIC) of chloroquine and the y-axis is FIC of chemosensitizing agent. The FIC is the actual IC50 of one drug in the presence of the second drug but is expressed as a fraction of its IC50 when used alone. If the isobologram graph is a straight line, it represents an additive effect of the two drugs. If the graph forms a concave curve below the line, it indicates synergy or potentiation of the combination. Below the line means synergy or potentiation and above the line means antagonism.

[2] = tested on: TM91C235; assay: FIC index in TM91C235 isolate; format: cell-based, Plasmodium falciparum; design: key: 1.0 = additive; <1.0 = synergy; >1.0 = antagonism; conditions: isolate from Southeast Asia (Thailand); same method as for W-2
Procedure: as §2, with “Fifty percent inhibitory concentrations (IC50s) were determined for each candidate compound alone and for candidate compounds in fixed combinations of their respective IC50s (1:1, 1:3, 3:1). […] The” for “The”
The same assay method described above for W-2 was used except that the strains used were isolated from Thailand, Brazil, and Peru, respectively.

[3] = tested on: RCS; assay: FIC index in RCS isolate; format: cell-based, Plasmodium falciparum; design: key: 1.0 = additive; <1.0 synergy; >1.0 antagonism; conditions: isolate from Brazil; same method as for W-2
Procedure: (§3) Fifty percent inhibitory concentrations (IC50s) were determined for each candidate compound alone and for candidate compounds in fixed combinations of their respective IC50s (1:1, 1:3, 3:1). […] See Elion, G. V., et al. (1954) J Biol Chem 208:477-488, which is herein incorporated by reference. The FIC is the actual IC50 of one compound in the presence of a second compound but is expressed as a fraction of its IC50 when used alone. This index is a mathematical representation of the isobologram such that an FIC index of 1.0 represents the line of additive on the isobologram. An FIC index of less than 1.0 represents synergy or potentiation and an FIC index of greater than 1.0 represents antagonism.
(§4) Parasites from different regions responded differently to the compounds of the present invention. The same assay method described above for W-2 was used except that the strains used were isolated from Thailand, Brazil, and Peru, respectively.

[4] = tested on: Peruvian PC49; assay: FIC index in Peruvian PC49 isolate; format: cell-based, Plasmodium falciparum; design: key: 1.0 = additive; <1.0 synergy; >1.0 antagonism; conditions: isolate from South America (Peru); same method as for W-2
Procedure: as §3, §4

[5] = tested on: TM91C235 cells; assay: In vitro reversal activity (cell growth suppression, 3H-hypoxanthine incorporation) in TM91C235 cells; format: cell-based, Plasmodium falciparum; conditions: for restoring the drug sensitivity of the mefloquine resistant cell line: coadministration with mefloquine; for Control % sup: test compounds only
Source text: For quantitative in vitro drug susceptibility testing, two well characterized P. falciparum clones, W2 and D6, were used. See Oduola et al. (1988) Exp Parasitol 66:86-95, which is herein incorporated by reference. W2 is a clone of the Indochina I isolate and is resistant to chloroquine and pyrimethamine, but susceptible to mefloquine. D6 is a clone from the Sierra I/UNC isolate and is susceptible to chloroquine and pyrimethamine, but has reduced susceptibilities to mefloquine and halofantrine. TM91C235 was isolates from Thailand and is highly resistant to mefloquine, chloroquine, and quinine.
The in vitro antimalarial drug susceptibility assay used is a modification of the procedures first published by Desjardins, et al. with modifications developed by Milhous, et al. See Desjardins, R. E., et al. (1979) Antimicrobial Agents Chemother 16:710-718; and Milhous, et al. (1985) Antimicrobial Agents Chemother 27:525-530, which are herein incorporated by reference. In brief, the assay is based on the incorporation of radiolabeled hypoxanthine by the parasites and inhibition of isotope incorporation is attributed to activity of known or candidate antimalarial drugs. For each assay, proven antimalarials, such as chloroquine, mefloquine, quinine, artemisinin, pyrimethamine and sulfadoxine, were used as controls. The incubation period was 66 hours and the starting parasitemia was 0.2% with a 1% hematocrit. The media used was RPMI-1640 culture media with no folate or p-aminobenzoic acid (PABA). Albumax may be used instead of 10% normal heat inactivated human plasma.
If a candidate compound was tested without any prior knowledge of its activity or solubility, the compound was dissolved directly in dimethylsulfoxide (DMSO) and diluted 400 fold with complete culture media. These unknown compounds were normally started at a highest concentration of about 50,000 ng/ml. The compounds were then diluted 2-fold, 11 times, to give a concentration range of about 1,048-fold. These dilutions were performed automatically by a Biomek 1000 or 2000 Liquid Handling System into 96-well microtiter plates.
as §1
Each of these test compounds were tested under three different concentrations, 5000, 500, and 50 ng/ml, in the presence of 10 ng/ml of chloroquine and 5 ng/ml of mefloquine. […] Thus, the compounds of the present invention may be used to treat, prevent or inhibit drug resistant malaria.

[6] = test compound 50 ng/ml combined with 5 ng/ml mefloquine
[7] = test compound 50 ng/ml combined with 10 ng/ml chloroquine
[8] = test compound 500 ng/ml combined with 5 ng/ml mefloquine
[9] = test compound 500 ng/ml combined with 10 ng/ml chloroquine
[10] = test compound 5000 ng/ml combined with 5 ng/ml mefloquine
[11] = test compound 5000 ng/ml combined with 10 ng/ml chloroquine

Structure (SMILES): CN1CCN(CCCCN2c3ccccc3CCc3ccccc32)CC1 [7p, 5-[4-(4-Methyl-piperazin-1-yl)-butyl]iminodibenzyl]
- FIC (fractional inhibitory concentration) index [1]: 0.52
- FIC index TM91C235 [2]: 0.54
- FIC index RCS [3]: 0.66

Structure (SMILES): c1ccc2c(c1)CCc1ccccc1N2CCCCCCN1CCCC1 [7x, 5-(6-Pyrrolidin-1-yl-hexyl)iminodibenzyl]
- FIC (fractional inhibitory concentration) index [1]: 0.57
- FIC index TM91C235 [2]: 0.54
- FIC index RCS [3]: 0.60
- FIC index Peruvian PC49 [4]: 0.92

Structure (SMILES): c1ccc(CN(CCCCN2c3ccccc3Sc3ccccc32)Cc2ccccc2)cc1 [7d, 10-(4-Dibenzylaminobutyl)phenothiazine]
- restoring the drug sensitivity of the mefloquine resistant cell line [5]: not very active
- Mefloquine % SUP [5, 6]: 0%
- Chloroquine % sup [5, 7]: 12%
- Mefloquine % SUP [5, 8]: 3%
- Chloroquine % sup [5, 9]: 16%
- Mefloquine % SUP [5, 10]: 9%
- Chloroquine % sup [5, 11]: 25%
- Control % sup ([5]; 50 ng/ml): 7%
- Control % sup ([5]; 500 ng/ml): 10%
- Control % sup ([5]; 5000 ng/ml): 22%

Structure (SMILES): CCN(CC)CCCCCN1c2ccccc2CCc2ccccc21 [7u, 5-(5-Diethylaminopentyl)iminodibenzyl]
- FIC (fractional inhibitory concentration) index [1]: 0.44
- FIC index TM91C235 [2]: 0.48
- FIC index RCS [3]: 0.36
- FIC index Peruvian PC49 [4]: 0.82

Structure (SMILES): c1ccc2c(c1)CCc1ccccc1N2CCCCN1CCCCC1 [7n, 5-(4-Piperidin-1-yl-butyl) iminodibenzyl]
- FIC (fractional inhibitory concentration) index [1]: 0.45
- FIC index TM91C235 [2]: 0.54
- FIC index RCS [3]: 0.36
- FIC index Peruvian PC49 [4]: 0.73

Structure (SMILES): CCN(CC)CCCCCCN1c2ccccc2CCc2ccccc21 [7w, 5-(6-Diethylaminohexyl)iminodibenzyl]
- FIC (fractional inhibitory concentration) index [1]: 0.48
- FIC index TM91C235 [2]: 0.59
- FIC index RCS [3]: 0.72

Structure (SMILES): CCN(CC)CCCC(C)Nc1ccnc2cc(Cl)ccc12 (stereo not shown) [chloroquine]
- cell growth inhibition of TM91C235 cells by drug alone ([5]; 10 ng/ml of chloroquine alone): did not inhibit the cell growth

Structure (SMILES): Cc1ccc(CNCCCCN2c3ccccc3Sc3ccccc32)cc1 [7c, 10-(4-Methylbenzylaminobutyl)phenothiazine]
- restoring the drug sensitivity of the mefloquine resistant cell line [5]: not very active
- Mefloquine % SUP [5, 6]: 0%
- Chloroquine % sup [5, 7]: 14%
- Mefloquine % SUP [5, 8]: 0%
- Chloroquine % sup [5, 9]: 27%
- Mefloquine % SUP [5, 10]: 13%
- Chloroquine % sup [5, 11]: 62%
- Control % sup ([5]; 50 ng/ml): 13%
- Control % sup ([5]; 500 ng/ml): 18%
- Control % sup ([5]; 5000 ng/ml): 35%

Structure (SMILES): c1ccc2c(c1)CCc1ccccc1N2CCCCN1CCOCC1 [7o, 5-(4-Morpholin-4-yl-butyl)iminodibenzyl]
- FIC (fractional inhibitory concentration) index [1]: 0.31
- FIC index TM91C235 [2]: 0.54
- FIC index RCS [3]: 0.89
- FIC index Peruvian PC49 [4]: 0.78

Structure (SMILES): CN(C)CCCCN1c2ccccc2Sc2ccccc21 [7a, 10-(4-Dimethylaminobutyl)phenothiazine]
- Mefloquine % SUP [5, 6]: 2%
- Chloroquine % sup [5, 7]: 30%
- Mefloquine % SUP [5, 8]: 31%
- Chloroquine % sup [5, 9]: 97%
- Mefloquine % SUP [5, 10]: 92%
- Chloroquine % sup [5, 11]: 100%
- Control % sup ([5]; 50 ng/ml): 17%
- Control % sup ([5]; 500 ng/ml): 27%
- Control % sup ([5]; 5000 ng/ml): 92%
- FIC (fractional inhibitory concentration) index [1]: 0.23
- FIC index TM91C235 [2]: 0.28
- FIC index RCS [3]: 0.51

Structure (SMILES): c1ccc2c(c1)Sc1ccccc1N2CCCCN1CCOCC1 [7g, 10-(4-Morpholin-4-yl-butyl)phenothiazine]
- FIC (fractional inhibitory concentration) index [1]: 0.39
- FIC index TM91C235 [2]: 0.32
- FIC index RCS [3]: 0.37
- FIC index Peruvian PC49 [4]: 0.81

Structure (SMILES): Cc1ccc(CNCCCCN2c3ccccc3CCc3ccccc32)cc1 [7k, 5-(4-Methylbenzylaminobutyl)iminodibenzyl]
- Mefloquine % SUP [5, 6]: 20%
- Chloroquine % sup [5, 7]: 10%
- Mefloquine % SUP [5, 8]: 22%
- Chloroquine % sup [5, 9]: 20%
- Mefloquine % SUP [5, 10]: 41%
- Chloroquine % sup [5, 11]: 33%
- Control % sup ([5]; 50 ng/ml): 30%
- Control % sup ([5]; 500 ng/ml): 32%
- Control % sup ([5]; 5000 ng/ml): 60%

Structure (SMILES): c1ccc2c(c1)CCc1ccccc1N2CCCCCN1CCCC1 [7v, 5-(5-Pyrrolidin-1-yl-pentyl)iminodibenzyl]
- FIC (fractional inhibitory concentration) index [1]: 0.48
- FIC index TM91C235 [2]: 0.55
- FIC index RCS [3]: 0.37
- FIC index Peruvian PC49 [4]: 0.59

Structure (SMILES): c1ccc(N(CCCCN2CCCC2)c2ccccc2)cc1 [7t, Diphenyl-(4-pyrrolidin-1-yl-butyl)amine]
- FIC (fractional inhibitory concentration) index [1]: 0.45
- FIC index TM91C235 [2]: 0.32
- FIC index RCS [3]: 0.37

Structure (SMILES): c1ccc(CN(CCCCN2c3ccccc3CCc3ccccc32)Cc2ccccc2)cc1 [7l, 5-(4-Dibenzylaminobutyl)iminodibenzyl]
- Mefloquine % SUP [5, 6]: 14%
- Chloroquine % sup [5, 7]: 6%
- Mefloquine % SUP [5, 8]: 22%
- Chloroquine % sup [5, 9]: 8%
- Mefloquine % SUP [5, 10]: 19%
- Chloroquine % sup [5, 11]: 13%
- Control % sup ([5]; 50 ng/ml): 11%
- Control % sup ([5]; 500 ng/ml): 17%
- Control % sup ([5]; 5000 ng/ml): 13%

Structure (SMILES): OC(c1cc(C(F)(F)F)nc2c(C(F)(F)F)cccc12)C1CCCCN1 (stereo not shown) [mefloquine, reference compound]
- cell growth inhibition of TM91C235 cells by drug alone ([5]; 5 ng/ml of mefloquine alone): did not inhibit the cell growth

Structure (SMILES): CCN(CC)CCCCN(c1ccccc1)c1ccccc1 [7s, N,N-Diethyl-N′,N′-diphenyl-butane-1,4-diamine]
- FIC (fractional inhibitory concentration) index [1]: 0.48
- FIC index TM91C235 [2]: 0.3
- FIC index RCS [3]: 0.33
